Patent US12336981B2, “Compounds and compositions for the inhibition of NAMPT” (Valo Health, Inc., priority 2010, dated 2025)
Like-named read-outs stand apart in the source and are kept apart here.

Columns and labels:
NAMPT = target: T1, NAMPT (Homo sapiens, UniProt P43490); test: Biochemical inhibition assay: NAMPT enzymatic reaction, NMN quantified by mass spectrometry; conditions: read-out: Biochem IC50
T1 construct: His tag; host or cells: E. coli
How it was run: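 Inhibition of E. coli-expressed His-tagged human NAMPT, measured as NMN formation by mass spectrometry after a 30 min room-temperature reaction containing 1 μM NAM, 100 μM PRPP and 2.5 mM ATP.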

A2780 cells = test: In-vitro cell proliferation assay (SRB), A2780 cells; assay type: cell-based; conditions: A2780 cells, 72 hours, SRB, read-out: A2780 IC50
How it was run: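 Viable cells measured by SRB staining after 6% TCA fixation, absorbance 570 nm. Media-only background subtracted; % inhibition derived at two compound concentrations.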

T1 sequence (P43490 whole entry): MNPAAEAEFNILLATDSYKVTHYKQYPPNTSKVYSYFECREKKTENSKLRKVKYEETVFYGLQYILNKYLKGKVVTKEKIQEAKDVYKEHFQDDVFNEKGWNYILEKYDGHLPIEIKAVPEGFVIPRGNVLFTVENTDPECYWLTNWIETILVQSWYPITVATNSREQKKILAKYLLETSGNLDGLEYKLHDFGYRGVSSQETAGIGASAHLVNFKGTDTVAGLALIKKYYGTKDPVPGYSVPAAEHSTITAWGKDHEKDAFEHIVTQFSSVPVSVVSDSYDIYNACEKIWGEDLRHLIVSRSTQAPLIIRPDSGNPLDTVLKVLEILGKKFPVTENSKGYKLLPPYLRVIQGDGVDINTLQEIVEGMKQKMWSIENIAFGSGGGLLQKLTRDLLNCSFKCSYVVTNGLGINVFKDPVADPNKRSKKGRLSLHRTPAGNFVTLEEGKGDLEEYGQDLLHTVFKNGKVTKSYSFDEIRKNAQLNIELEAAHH

Row | SMILES | IC50 (NAMPT; NAMPT enzymatic reaction) [nM] | IC50 (A2780 cells; Homo sapiens, A2780, 72 h) [nM] | IC50 (NAMPT; NAMPT enzymatic assay) [nM] | IC50 (A2780 cells) [nM]
1 | O=C(NCc1ccc(S(=O)(=O)c2cccc(N3CCOCC3)c2)cc1)c1cc2cc(O)ccc2[nH]1 | 100 to 1000 | 1000 to 10000 |  | 
2 | COc1ccc(OC)c(S(=O)(=O)c2ccc(CNC(=O)c3cc4ccncc4o3)cc2)c1 | 11.4 | 6.3 |  | 
3 | Cc1ccc(C)c(S(=O)(=O)c2ccc(CNC(=O)c3cc4ccncc4o3)cc2)c1 | 18.1 | 23.9 |  | 
4 | CN(C)CCOc1cccc(S(=O)(=O)c2ccc(CNC(=O)c3cc4ccncc4o3)cc2)c1 |  | 5.8 | 11.8 | 
5 | CN(C)CCc1cccc(S(=O)(=O)c2ccc(CNC(=O)c3cc4ccncc4s3)cc2)c1 |  | 1.6 | 2.5 | 
6 | CN(C)CCc1cccc(S(=O)(=O)c2ccc(CNC(=O)c3cnc4nccn4c3)cc2)c1 |  | 100 to 1000 | 3.5 | 
7 | CN(C)CCc1cccc(S(=O)(=O)c2ccc(CNC(=O)c3cc4cnccc4[nH]3)cc2)c1 |  | 22.3 | 29.2 | 
8 | O=C(NCc1ccc(S(=O)(=O)c2cccc(OCCN3CCOCC3)c2)cc1)c1cc2ccncc2s1 |  | 1.5 | 3 | 
9 | O=C(NCc1ccc(S(=O)(=O)c2cccc(OCCN3CCOCC3)c2)cc1)c1cc2cnccc2[nH]1 |  | 12.6 | 64.9 | 
10 | O=C(NCc1ccc(S(=O)(=O)c2cccc(OCCN3CCOCC3)c2)cc1)c1ccc2nccn2c1 |  | 3.4 | 6.8 | 
11 | O=C(NCc1ccc(S(=O)(=O)c2cccc(OCCN3CCOCC3)c2)cc1)c1cnc2nccn2c1 |  | 24.7 | 3.1 | 
12 | CC(C)CNC(=O)c1cccc(S(=O)(=O)c2ccc(CNC(=O)c3cnc4nccn4c3)cc2)c1 |  | 45.6 | 7 | 
13 | CC(C)CNC(=O)c1cccc(S(=O)(=O)c2ccc(CNC(=O)c3cc4ccncc4o3)cc2)c1 |  | 26.3 | 16.9 | 
14 | CN(C)Cc1cccc(S(=O)(=O)c2ccc(CNC(=O)c3cnc4nccn4c3)cc2)c1 |  | 66 | 4.4 | 
15 | CN(C)Cc1cccc(S(=O)(=O)c2ccc(CNC(=O)c3cc4ccncc4o3)cc2)c1 |  | 6.2 | 4.7 | 
16 | O=C(NCc1ccc(S(=O)(=O)c2cccc(C(=O)N3CCOCC3)c2)cc1)c1cnc2[nH]ncc2c1 |  | 100 to 1000 | 124 | 
17 | CC(C)NC(=O)c1cccc(S(=O)(=O)c2ccc(CNC(=O)c3cc4ccncc4o3)cc2)c1 |  | 15.7 | 15.1 | 
18 | CC(C)NC(=O)c1cccc(S(=O)(=O)c2ccc(CNC(=O)c3cnc4nccn4c3)cc2)c1 |  | 65.8 | 7 | 
19 | CC(C)NC(=O)c1cccc(S(=O)(=O)c2ccc(CNC(=O)c3ccc4nccn4c3)cc2)c1 |  | 50.4 | 22.2 | 
20 | CN(C)CCc1ccc(S(=O)(=O)c2ccc(CNC(=O)c3ccc4nccn4c3)cc2)cc1 |  | 0.8 | 2.1 | 
21 | CN(C)CCc1ccc(S(=O)(=O)c2ccc(CNC(=O)c3cnc4nccn4c3)cc2)cc1 |  | 18.1 | 2 | 

Row | SMILES | IC50 (NAMPT; NAMPT enzymatic reaction) [nM] | IC50 (A2780 cells; Homo sapiens, A2780, 72 h) [nM] | IC50 (NAMPT; NAMPT enzymatic assay) [nM] | IC50 (A2780 cells) [nM]
22 | O=C(NCc1ccc(S(=O)(=O)c2ccc(OCCN3CCCC3)cc2)cc1)c1cc2cnccc2[nH]1 |  |  | 3 | 2.3
23 | CCC[C@@H](O)c1ccc(S(=O)(=O)c2ccc(CNC(=O)c3cnc4nccn4c3)cc2)cc1 |  | 14.2 | 4.8 | 
24 | CCC[C@@H](O)c1ccc(S(=O)(=O)c2ccc(CNC(=O)c3cc4ccncc4o3)cc2)cc1 |  | 12.2 | 28.5 | 
25 | CN(C)Cc1ccc(S(=O)(=O)c2ccc(CNC(=O)c3cnc4nccn4c3)cc2)cc1 |  | 24.6 | 3.3 | 
26 | COc1cc(F)ccc1S(=O)(=O)c1ccc(CNC(=O)c2cc3ccncc3o2)cc1 | 12.7 | 16 |  | 
27 | COc1cc(F)ccc1S(=O)(=O)c1ccc(CNC(=O)c2cnc3nccn3c2)cc1 | 19.1 | 73.6 |  | 
28 | Cc1cc(F)ccc1S(=O)(=O)c1ccc(CNC(=O)c2cnc3nccn3c2)cc1 | 13 | 100 to 1000 |  | 
29 | Cc1cc(F)ccc1S(=O)(=O)c1ccc(CNC(=O)c2cc3ccncc3o2)cc1 | 18.7 | 65.1 |  | 
30 | Cc1cc(S(=O)(=O)c2ccc(CNC(=O)c3cnc4nccn4c3)cc2)c(C)cc1F | 5.8 | 29.4 |  | 
31 | Cc1cc(S(=O)(=O)c2ccc(CNC(=O)c3ccc4nccn4c3)cc2)c(C)cc1F | 44 | 11 |  | 
32 | CC(C)NC(=O)c1cc(S(=O)(=O)c2ccc(CNC(=O)c3cnc4nccn4c3)cc2)ccc1F |  | 85.4 | 7.7 | 
33 | CC(C)NC(=O)c1cc(S(=O)(=O)c2ccc(CNC(=O)c3cc4ccncc4s3)cc2)ccc1F |  | 6.8 | 21.3 | 
34 | COc1cc(S(=O)(=O)c2ccc(CNC(=O)c3cc4cnccc4[nH]3)cc2)ccc1F | 27.8 | 5.4 |  | 
35 | COc1cc(S(=O)(=O)c2ccc(CNC(=O)c3cnc4nccn4c3)cc2)ccc1F | 4.9 | 10.8 |  | 
36 | COc1cc(S(=O)(=O)c2ccc(CNC(=O)c3cc4ccncc4o3)cc2)ccc1F | 7.8 | 7 |  | 
37 | COc1cc(S(=O)(=O)c2ccc(CNC(=O)c3ccc4nccn4c3)cc2)ccc1F | 19.7 | 6.7 |  | 
38 | Cc1cc(S(=O)(=O)c2ccc(CNC(=O)c3cnc4nccn4c3)cc2)ccc1F | 2.2 | 9.6 |  | 
39 | Cc1cc(S(=O)(=O)c2ccc(CNC(=O)c3cnc4[nH]ncc4c3)cc2)ccc1F | 5 | 8.3 |  | 
40 | Cc1cc(S(=O)(=O)c2ccc(CNC(=O)c3cc4ccncc4o3)cc2)ccc1F | 13.2 | 6 |  | 
41 | COc1ccc(S(=O)(=O)c2ccc(CNC(=O)c3cnc4nccn4c3)cc2)c(C)c1 | 2.4 | 67.9 |  | 
42 | COc1cc(C)c(S(=O)(=O)c2ccc(CNC(=O)c3cnc4nccn4c3)cc2)cc1C | 5.2 | 13 |  | 

Row | SMILES | IC50 (NAMPT; NAMPT enzymatic reaction) [nM] | IC50 (A2780 cells; Homo sapiens, A2780, 72 h) [nM] | IC50 (NAMPT; NAMPT enzymatic assay) [nM] | IC50 (A2780 cells) [nM]
43 | COc1cc(C)c(S(=O)(=O)c2ccc(CNC(=O)c3ccc4nccn4c3)cc2)cc1C | 28.1 | 6 |  | 
44 | COc1cc(C)c(S(=O)(=O)c2ccc(CNC(=O)c3cc4ccncc4o3)cc2)cc1C | 12.3 | 12.8 |  | 
45 | COc1ccc(S(=O)(=O)c2ccc(CNC(=O)c3cnc4nccn4c3)cc2)cc1C | 2.2 | 5.5 |  | 
46 | COc1c(C)cc(S(=O)(=O)c2ccc(CNC(=O)c3cc4ccncc4s3)cc2)cc1C | 9.8 | 0.9 |  | 
47 | COc1c(C)cc(S(=O)(=O)c2ccc(CNC(=O)c3ccc4nccn4c3)cc2)cc1C | 14.6 | 1.4 |  | 
48 | COc1c(C)cc(S(=O)(=O)c2ccc(CNC(=O)c3cc4ccncc4o3)cc2)cc1C | 5.6 | 1.8 |  | 
49 | COc1c(C)cc(S(=O)(=O)c2ccc(CNC(=O)c3cnc4nccn4c3)cc2)cc1C | 2.7 | 1.3 |  | 
50 | COc1c(C)cc(S(=O)(=O)c2ccc(CNC(=O)c3cc4cnccc4[nH]3)cc2)cc1C | 51.6 | 1.7 |  | 
51 | COc1ccc(S(=O)(=O)c2ccc(CNC(=O)c3cnc4[nH]ncc4c3)cc2)cc1 | 20.9 | 14.3 |  | 
52 | COc1ccc(S(=O)(=O)c2ccc(CNC(=O)c3cnc4nccn4c3)cc2)cc1 | 2.7 | 20.7 |  | 
53 | Cc1ccc(S(=O)(=O)c2ccc(CNC(=O)c3cnc4nccn4c3)cc2)cc1 | 4.3 | 19.4 |  | 
54 | O=C(NCc1ccc(S(=O)(=O)c2ccc(-c3ccccc3)cc2)cc1)c1cnc2[nH]ncc2c1 | 32 | 11.7 |  | 
55 | O=C(NCc1ccc(S(=O)(=O)c2ccc(-c3ccccc3)cc2)cc1)c1cc2ccncc2s1 | 3 | 10.6 |  | 
56 | CCCOc1ccc(S(=O)(=O)c2ccc(CNC(=O)c3cc4cnccc4[nH]3)cc2)cc1 | 5.3 | 6.7 |  | 
57 | CCCOc1ccc(S(=O)(=O)c2ccc(CNC(=O)c3cc4ccncc4o3)cc2)cc1 | 49.5 | 12 |  | 
58 | CCCOc1ccc(S(=O)(=O)c2ccc(CNC(=O)c3cnc4nccn4c3)cc2)cc1 | 2.2 | 6.1 |  | 
59 | CCCOc1ccc(S(=O)(=O)c2ccc(CNC(=O)c3ccc4nccn4c3)cc2)cc1 | 6.1 | 1.9 |  | 
60 | CCCOc1ccc(S(=O)(=O)c2ccc(CNC(=O)c3cc4ccncc4s3)cc2)cc1 | 4.3 | 8.1 |  | 
61 | COc1ccc(C(C)=O)cc1S(=O)(=O)c1ccc(CNC(=O)c2cnc3[nH]ncc3c2)cc1 | 27.7 | 27.5 |  | 
